These results are taken from patent US10105380B2, “Glycoclusters and their pharmaceutical use as antibacterials” (priority 2013, dated 2018).

In brackets after ≈: the same amount, converted by molar mass. Like-named read-outs stand apart in the source and are kept apart here.

The target in assay [1] is T1, PA-IL (Pseudomonas aeruginosa, UniProt Q05097). It is filed as binding. Conditions: for Potency vs EG3-O-Gal: ratio of IC50Lac to mono EG3-O-galactose (entry 1); for Potency vs AcNPhe-O-Gal: ratio of IC50Lac to mono-aromatic galactose 31 (entry 2). As for the experimental part: IC50 Determination with “on Chip” Biological Recognition
T1 sequence (Q05097 2-122): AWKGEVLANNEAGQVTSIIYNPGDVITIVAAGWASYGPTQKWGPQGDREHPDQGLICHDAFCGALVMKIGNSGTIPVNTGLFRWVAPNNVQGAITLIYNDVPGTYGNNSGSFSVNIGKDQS
Lectin PA-IL (0.12 μM final concentration), BSA (2% final concentration) and CaCl2 (1 μg/mL final concentration) was diluted in PBS1× (pH=7.4). In each micro tube was added the inhibitor lactose at the desired final concentration (0; 1.10^−5; 1.10^−4; 5.10^−4; 1.10^−3; 5.10^−3; 1.10^−2; 5.10^−2; 0.1; 1; 5; 10; 50; 10^2; 5.10^2; 10^3; 5.10^3; 10^4; 10^5; 3.10^5).
2 μL of each solution were deposited in the corresponding microwells and the slide was incubated at 37° C. in a water vapor saturated chamber for 3 h. The washing steps are: PBS-Tween0.2% 5 min at 4° C., then briefly in deionized water and dried by centrifugation.
Slide was scanned at 532 nm then at 635 nm with the Microarray scanner, GenePix 4100A software package (Axon Instruments; λex 532/635 nm and λem 575/670 nm). The fluorescence signal of each conjugate was determined as the average of the mean fluorescence signal of sixty-four spots.
IC50 values were determined using “BioDataFit 1.02 program”. The model chosen was “Sigmoidal”: Y=a+(b−a)/[1+10^(x−c)]
with a=FImin, b=FImax, x=[…] and c=log(IC50). FImin/max is the minimum/maximum Alexa-647 fluorescence signal observed for a galactomimetic.
So the IC50 value was called IC50Lac.

The target in assay [2] is T1, PA-IL. The assay is described as follows: DDI glycoarray, direct fluorescence scanning with Alexa647-PA-IL. It is filed as binding. Particulars: result in words.
The target in assay [3] is T1, PA-IL. It is filed as binding. Particulars: potency in respect with GalOMe (ITC Kd).
Description: Recombinant lyophilized PA-IL was dissolved in buffer (0.1 M TRIS-HCl, 6 μM CaCl2, pH 7.5) and degassed. […] ITC was performed using a VP-ITC MicroCalorimeter from MicroCal Incorporated. PA-IL was placed into the1.4478 mL sample cell, at 25° C. Titration was performed with 10 μL injections of carbohydrate ligands every 300 s. Data were fitted using the “one-site model” using MicroCal Origin 7 software according to standard procedures. Fitted data yielded the stoichiometry (n), the association constant (Ka), and the enthalpy of binding (ΔH). Other thermodynamic parameters (i.e., changes in free energy ΔG and entropy ΔS) were calculated from the equation ΔG=ΔH−TΔS=−RTlnKa in which T is the absolute temperature and R=8.314 J·mol^−1·K^−1. Two or three independent titrations were performed for each ligand tested.
In assay [4] the target is T1, PA-IL. The assay is described as follows: Hemagglutination inhibition assay (HIA), rabbit erythrocytes. It is filed as cell-based. As for the experimental part:
The binding of PA-IL to galactoclusters was probed as the ability of the clusters to inhibit the binding of PA-IL to rabbit erythrocytes (Hemagglutination inhibition assay, HIA) or to surface bound galactosyl modified polyacrylamide either by Surface Plasmon Resonance (SPR), Enzyme Linked Assay (ELLA) Inhibition was measured with competitive assays. In HIA experiments, the minimal inhibitory concentration (MIC) is the minimal concentration of galactocluster that inhibit the hemagglutination of rabbit erythrocytes in presence of the lectin. The lower the MIC the highest is the binding of the galactocluster to the lectin. SPR and ELLA were used to determine the IC50 value. […] The lower the IC50 value as determined by SPR (^SPRIC50) and ELLA (^ELLAIC50), the higher is the binding of PA-IL to the galactocluster.
Hemagglutination inhibition assays (HIA) were performed in U-shaped 96-well microtitre plates. Rabbit erythrocytes were purchased from Biomérieux and used without further washing. Erythrocytes were diluted to a 8% solution in NaCl (100 mM). PA-IL solutions of 3 μM were prepared in TRIS-HCl 20 mM (TRIS=tris(hydroxymethyl)aminomethane), NaCl 100 mM, and CaCl2 100 mM. The hemagglutination unit (HU) was first obtained by addition of the 4% erythrocyte solution (50 μL) to aliquots (50 μL) of sequential (twice) lectin dilutions. The mixture was incubated at 25° C. for 30 min. The HU was measured as the minimum lectin concentration required to observe hemagglutination. For the following lectin-inhibition assays, lectin concentrations of 4 HU were used. […] Subsequent inhibition assays were then carried out by the addition of lectin solution (25 μL, at the required concentration) to sequential dilutions (50 μL) of glycoclusters, monomer molecules, and controls. These solutions were incubated at 37° C. for 30 min, then 8% erythrocyte solution (25 μL) was added, followed by an additional incubation at 37° C. for 1 h. The minimum inhibitory concentration for each molecule was determined for each duplicate.

Assay [5] has as its target T1, PA-IL. The assay is described as follows: Kd determination on DDI microarray (Langmuir isotherm, Scatchard plot). Conditions: text b577, microarray, Langmuir isotherm. It is filed as binding. How it is done:
The methodologies for Kd and IC50 value determination have been previously reported (Gerland, B. et al., (2012) Bioconjugate Chem. 23, 1534-1547; Zhang, J. et al., (2009) Chem. Comm., 6795-6797; Zhang, J. et al., (2009) Biosens. Bioelectron. 24, 2515-2521).
CaCl2 (1 μg/mL final concentration) was added. PA-IL at the desired final concentration was then added. 2 μL of each solution (corresponding to the desired PA-IL concentration) were poured in the corresponding microwells. The slide was incubated (3 h, 37° C.) in a water vapor saturated chamber and finally washed in PBS-Tween 20 (0.02%, 5 min, 4° C.) and dried. A Microarray scanner, GenePix 4100A software package (Axon Instruments; λex 532/635 nm and λem 575/670 nm) was used for fluorescent imaging of both fluorophore (Cy3 and Alexa 647). The average of the mean fluorescence signal was calculated from eight spots. The resulting Langmuir Isotherms were linearised using Scatchard plot to give the Kd values at the ordonnate intercept.

Regarding Man(HexTzM-Gal)4 [compound 18], in assay [1] (lactose concentration required to displace 50% of PA-IL from the glycocluster, higher = better binding, read-out: IC50Lac), the IC50 stood at 107 µM. Besides, in assay [1], the “Potency vs EG3-O-Gal” value is 21 and the “Potency vs AcNPhe-O-Gal” value stood at 6.7. Also, the “binding to PA-IL on microarray” value in assay [2] is on record as “high binding”.
As for `CO[C@@H]1O[C@H](CO)[C@H](O)[C@H](O)[C@H]1O` [Gal-OMe, 1-O-Methyl-β-D-galactoside], the values for the βMe in assay [3] and in assay [4] (ratio of MIC of Gal-OMe over MIC of the molecule) were 1 and 1.0, respectively. The MIC in assay [4] (minimal inhibitory concentration of hemagglutination, PA-IL 3 μM) was determined as 16 mM (≈ 3110 µg/mL). The βAr in assay [4] (ratio of MIC of Gal-OArNO2 over MIC of the molecule) worked out at 0.13.
As for Man(POProTzAcNPhe-O-Gal)4 [17d], binding in assay [5] was characterised by a dissociation constant (Kd) of 0.196 µM. Also, the β in assay [1] (Table 6, relative potency vs monovalent ligand 31) is reported as 177. Further, in assay [1], the “Potency vs EG3-O-Gal” value is recorded as 565 and the “Potency vs AcNPhe-O-Gal” value came to 177. The “binding to PA-IL on microarray” value in assay [2] is “high binding”.

As usually defined, the Kd is the constant that tells how readily two partners part at equilibrium.
